In PubChem BioAssay (NCI):
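Assay format: 96-well plates, 48-hour exposure. Abbreviation: GI50, concentration required for 50% inhibition of growth. TGI is the concentration that stops growth completely.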

What was measured:
Experiment in all cases: NCI-60 cell line screen, 48 h
DU-145 prostate = system: DU-145 prostate
HOP-62 NSCLC = system: HOP-62 NSCLC
SK-OV-3 ovarian = system: SK-OV-3 ovarian
NCI/ADR-RES ovarian = system: NCI/ADR-RES ovarian
TK-10 renal = system: TK-10 renal
SNB-75 CNS = system: SNB-75 CNS
NCI-H226 lung = system: NCI-H226 lung
SN12C renal = system: SN12C renal
MDA-MB-231 breast = system: MDA-MB-231 breast
CAKI-1 renal = system: CAKI-1 renal
PC-3 prostate = system: PC-3 prostate
BT-549 breast = system: BT-549 breast
NCI-H522 lung = system: NCI-H522 lung
UACC-62 melanoma = system: UACC-62 melanoma
OVCAR-8 ovarian = system: OVCAR-8 ovarian
EKVX NSCLC = system: EKVX NSCLC
U251 CNS = system: U251 CNS
UACC-257 melanoma = system: UACC-257 melanoma
RXF 393 renal = system: RXF 393 renal
HCT-116 colon = system: HCT-116 colon
COLO 205 colon = system: COLO 205 colon
HCT-15 colon = system: HCT-15 colon
OVCAR-4 ovarian = system: OVCAR-4 ovarian
LOX IMVI melanoma = system: LOX IMVI melanoma
A498 renal = system: A498 renal
MDA-MB-435 = system: MDA-MB-435
ACHN renal = system: ACHN renal
M14 melanoma = system: M14 melanoma
OVCAR-3 ovarian = system: OVCAR-3 ovarian
HCC-2998 colon = system: HCC-2998 colon
CCRF-CEM leukemia = system: CCRF-CEM leukemia
MCF7 breast = system: MCF7 breast
SK-MEL-2 melanoma = system: SK-MEL-2 melanoma
KM12 colon = system: KM12 colon
SF-268 CNS = system: SF-268 CNS
SNB-19 CNS = system: SNB-19 CNS
786-0 renal = system: 786-0 renal
SF-539 CNS = system: SF-539 CNS
NCI-H23 lung = system: NCI-H23 lung
MALME-3M melanoma = system: MALME-3M melanoma
T-47D breast = system: T-47D breast
IGROV1 ovarian = system: IGROV1 ovarian
SK-MEL-5 melanoma = system: SK-MEL-5 melanoma
SK-MEL-28 melanoma = system: SK-MEL-28 melanoma
K-562 leukemia = system: K-562 leukemia
OVCAR-5 ovarian = system: OVCAR-5 ovarian
SF-295 CNS = system: SF-295 CNS
A549 NSCLC = system: A549 NSCLC
HS 578T breast = system: HS 578T breast
HT29 colon = system: HT29 colon
NCI-H460 lung = system: NCI-H460 lung
UO-31 renal = system: UO-31 renal
MOLT-4 leukemia = system: MOLT-4 leukemia
SW-620 colon = system: SW-620 colon

CC(C)C[C@H](CC(=O)O)C(=O)N[C@@H](Cc1c[nH]c2ccccc12)C(=O)N[C@@H](C)c1ccccc1
GI50 (DU-145 prostate): > 25 µM | TGI (DU-145 prostate): > 25 µM | GI50 (HOP-62 NSCLC): > 25 µM | TGI (HOP-62 NSCLC): > 25 µM | GI50 (SK-OV-3 ovarian): > 25 µM | TGI (SK-OV-3 ovarian): > 25 µM | GI50 (NCI/ADR-RES ovarian): > 25 µM | TGI (NCI/ADR-RES ovarian): > 25 µM | GI50 (TK-10 renal): > 25 µM | TGI (TK-10 renal): > 25 µM | GI50 (SNB-75 CNS): > 25 µM | TGI (SNB-75 CNS): > 25 µM | GI50 (NCI-H226 lung): > 25 µM | TGI (NCI-H226 lung): > 25 µM | GI50 (SN12C renal): > 25 µM | TGI (SN12C renal): > 25 µM | GI50 (MDA-MB-231 breast): > 25 µM | TGI (MDA-MB-231 breast): > 25 µM | GI50 (CAKI-1 renal): > 25 µM | TGI (CAKI-1 renal): > 25 µM | GI50 (PC-3 prostate): > 25 µM | TGI (PC-3 prostate): > 25 µM | GI50 (BT-549 breast): > 25 µM | TGI (BT-549 breast): > 25 µM | GI50 (NCI-H522 lung): > 25 µM | TGI (NCI-H522 lung): > 25 µM | GI50 (UACC-62 melanoma): > 25 µM | TGI (UACC-62 melanoma): > 25 µM | GI50 (OVCAR-8 ovarian): > 25 µM | TGI (OVCAR-8 ovarian): > 25 µM | GI50 (EKVX NSCLC): > 25 µM | TGI (EKVX NSCLC): > 25 µM | GI50 (U251 CNS): > 25 µM | TGI (U251 CNS): > 25 µM | GI50 (UACC-257 melanoma): > 25 µM | TGI (UACC-257 melanoma): > 25 µM | GI50 (RXF 393 renal): > 25 µM | TGI (RXF 393 renal): > 25 µM | GI50 (HCT-116 colon): > 25 µM | TGI (HCT-116 colon): > 25 µM | GI50 (COLO 205 colon): > 25 µM | TGI (COLO 205 colon): > 25 µM | GI50 (HCT-15 colon): > 25 µM | TGI (HCT-15 colon): > 25 µM | GI50 (OVCAR-4 ovarian): > 25 µM | TGI (OVCAR-4 ovarian): > 25 µM | GI50 (LOX IMVI melanoma): > 25 µM | TGI (LOX IMVI melanoma): > 25 µM | GI50 (A498 renal): > 25 µM | TGI (A498 renal): > 25 µM | GI50 (MDA-MB-435): > 25 µM | TGI (MDA-MB-435): > 25 µM | GI50 (ACHN renal): > 25 µM | TGI (ACHN renal): > 25 µM | GI50 (M14 melanoma): > 25 µM | TGI (M14 melanoma): > 25 µM | GI50 (OVCAR-3 ovarian): > 25 µM | TGI (OVCAR-3 ovarian): > 25 µM | GI50 (HCC-2998 colon): > 25 µM | TGI (HCC-2998 colon): > 25 µM | GI50 (CCRF-CEM leukemia): > 25 µM | TGI (CCRF-CEM leukemia): > 25 µM | GI50 (MCF7 breast): > 25 µM | TGI (MCF7 breast): > 25 µM | GI50 (SK-MEL-2 melanoma): > 25 µM | TGI (SK-MEL-2 melanoma): > 25 µM | GI50 (KM12 colon): > 25 µM | TGI (KM12 colon): > 25 µM | GI50 (SF-268 CNS): > 25 µM | TGI (SF-268 CNS): > 25 µM | GI50 (SNB-19 CNS): > 25 µM | TGI (SNB-19 CNS): > 25 µM | GI50 (786-0 renal): > 25 µM | TGI (786-0 renal): > 25 µM | GI50 (SF-539 CNS): > 25 µM | TGI (SF-539 CNS): > 25 µM | GI50 (NCI-H23 lung): > 25 µM | TGI (NCI-H23 lung): > 25 µM | GI50 (MALME-3M melanoma): > 25 µM | TGI (MALME-3M melanoma): > 25 µM | GI50 (T-47D breast): > 25 µM | TGI (T-47D breast): > 25 µM | GI50 (IGROV1 ovarian): > 25 µM | TGI (IGROV1 ovarian): > 25 µM | GI50 (SK-MEL-5 melanoma): > 25 µM | TGI (SK-MEL-5 melanoma): > 25 µM | GI50 (SK-MEL-28 melanoma): > 25 µM | TGI (SK-MEL-28 melanoma): > 25 µM | GI50 (K-562 leukemia): > 25 µM | TGI (K-562 leukemia): > 25 µM | GI50 (OVCAR-5 ovarian): > 25 µM | TGI (OVCAR-5 ovarian): > 25 µM | GI50 (SF-295 CNS): > 25 µM | TGI (SF-295 CNS): > 25 µM | GI50 (A549 NSCLC): > 25 µM | TGI (A549 NSCLC): > 25 µM | GI50 (HS 578T breast): > 25 µM | TGI (HS 578T breast): > 25 µM | GI50 (HT29 colon): > 25 µM | TGI (HT29 colon): > 25 µM | GI50 (NCI-H460 lung): > 25 µM | TGI (NCI-H460 lung): > 25 µM | GI50 (UO-31 renal): > 25 µM | TGI (UO-31 renal): > 25 µM | GI50 (MOLT-4 leukemia): > 25 µM | TGI (MOLT-4 leukemia): > 25 µM | GI50 (SW-620 colon): > 25 µM | TGI (SW-620 colon): > 25 µM
